Experimental data published in patent publication US20230172204A1 (BASF SE, priority 2020, published 2023).

Columns and labels:
[1] = tested on: Pyricularia oryzae; experiment: microbe, parasite or virus in culture; assay type: cell-based; settings: Pyricularia oryzae, 168 h, read-out: Fungal growth (%) PYRIOR
[2] = tested on: Microdochium nivale; experiment: Micro titer plate test against Microdochium nivale causing snow mould (MONGNI); assay type: cell-based; settings: Microdochium nivale, 168 h; 0.016 ppm; read-out: Fungal growth (%) MONGNI
[3] = tested on: Alternaria solani (F129L); experiment: Micro titer plate test against Alternaria solani causing early blight (ALTESO F129L); assay type: cell-based; settings: Alternaria solani, 168 h; 0.016 ppm; read-out: Fungal growth (%) ALTESO F129L
[4] = tested on: Alternaria solani (wt); experiment: microbe, parasite or virus in culture; assay type: cell-based; settings: Alternaria solani, 168 h; 0.016 ppm; read-out: Fungal growth (%) ALTESO wt
[5] = tested on: Cercospora sojina; experiment: microbe, parasite or virus in culture; assay type: cell-based; settings: Cercospora sojina, 168 h; 4 ppm; read-out: Fungal growth (%) CERCSO
[6] = tested on: Phakopsora pachyrhizi (F129L); experiment: Protective control of soybean rust on soybeans (PHAKPA P6); assay type: in vivo; settings: P6 protective, % diseased leaf area
[7] = tested on: Phakopsora pachyrhizi (F129L); experiment: Protective control of soybean rust on soybeans (PHAKPA P2); assay type: in vivo; settings: P2 protective, % diseased leaf area

Row | Compound | PHAKPA (F129L) Disease level (%) P6 at 16 ppm [6] [%] | PHAKPA (F129L) Disease level (%) P2 at 4 ppm [7] [%] | PHAKPA (F129L) Disease level (%) P2 at 16 ppm [7] [%] | further results
1 | Cc1cccc(-n2nnn(C)c2=O)c1COc1ccn(-c2ccc(Cl)cc2)n1 [drawing 928] |  |  |  | activity at 0.016 ppm [1]: 87%; activity at 0.016 ppm [2]: 97%; activity at 0.016 ppm [3]: 100%; activity at 0.016 ppm [4]: 98%
2 | CNC(=O)/C(=N/OC)c1cccc(C)c1CO/N=C(\OC)c1cccc(C(F)(F)F)c1 [drawing 948] |  |  |  | activity at 4 ppm [5]: 60%; activity at 0.016 ppm [2]: 80%
3 | CNC(=O)/C(=N/OC)c1cccc(C)c1CO/N=C(/c1cccc(C)c1)C1CC1 [drawing 975, reference compound] | 67 | 67 |  | 
4 | CNC(=O)/C(=N/OC)c1cccc(C)c1CO/N=C(\SC)c1cccc(Cl)c1 [drawing 979, reference compound] | 9 | 20 |  | 
5 | CO/N=C(/C(=O)OC)c1cccc(C)c1CO/N=C(/c1cccc(Cl)c1)C1CC1 [drawing 981, reference compound] | 87 | 83 |  | 
6 | CO/N=C(/C(=O)OC)c1cccc(C)c1CO/N=C(\SC)c1cccc(Cl)c1 [drawing 982, reference compound] | 18 | 47 |  | 
7 | CNC(=O)/C(=N/OC)c1cccc(C)c1CO/N=C(\SC)c1cccc(C(F)(F)F)c1 [drawing 984, reference compound] |  |  |  | PHAKPA (F129L) Disease level (%) P6 at 4 ppm [6]: 43%; PHAKPA (F129L) Disease level (%) P2 at 1 ppm ([7]; 1 ppm): 32%
8 | CO/C=C(/C(=O)OC)c1ccccc1CO/N=C(\C)c1cccc(C(F)(F)F)c1 [reference compound] |  | 6 |  | PHAKPA (F129L) Disease level (%) P6 at 4 ppm [6]: 30%
9 | CNC(=O)/C(=N/OC)c1ccccc1CO/N=C(\C)c1cccc(Br)c1 [reference compound] |  | 27 |  | PHAKPA (F129L) Disease level (%) P6 at 4 ppm [6]: 70%
10 | CNC(=O)/C(=N/OC)c1ccccc1CO/N=C(\C)c1ccc(C)cc1 [reference compound] |  | 100 |  | PHAKPA (F129L) Disease level (%) P6 at 4 ppm [6]: 100%
11 | CNC(=O)/C(=N/OC)c1ccccc1CO/N=C(\C)c1ccc(Cl)cc1 [reference compound] |  | 40 |  | PHAKPA (F129L) Disease level (%) P6 at 4 ppm [6]: 80%
12 | CNC(=O)/C(=N/OC)c1ccccc1CO/N=C(\C)c1cccc(Cl)c1 [reference compound] |  | 43 |  | PHAKPA (F129L) Disease level (%) P6 at 4 ppm [6]: 80%
13 | CNC(=O)/C(=N/OC)c1ccccc1CO/N=C(\C)c1cc(Cl)cc(Cl)c1 [reference compound] |  | 100 |  | PHAKPA (F129L) Disease level (%) P6 at 4 ppm [6]: 97%
14 | CNC(=O)/C(=N/OC)c1ccccc1CO/N=C(\C)c1ccccc1 [reference compound] |  | 87 |  | PHAKPA (F129L) Disease level (%) P6 at 4 ppm [6]: 100%
15 | CNC(=O)/C(=N/OC)c1ccccc1CO/N=C(\C)c1cccc(C(F)(F)F)c1 [reference compound] |  | 12 |  | PHAKPA (F129L) Disease level (%) P6 at 4 ppm [6]: 38%
16 | CNC(=O)/C(=N/OC)c1ccccc1CO/N=C(\C)c1ccc(Cl)c(Cl)c1 [reference compound] |  | 43 |  | PHAKPA (F129L) Disease level (%) P6 at 4 ppm [6]: 77%
17 | CCc1ccc(/C(C)=N/OCc2ccccc2/C(=N\OC)C(=O)NC)cc1 [reference compound] |  | 35 |  | PHAKPA (F129L) Disease level (%) P6 at 4 ppm [6]: 83%
18 | CNC(=O)/C(=N/OC)c1ccccc1CO/N=C(\C)c1cc(Cl)ccc1Cl [reference compound] |  | 87 |  | PHAKPA (F129L) Disease level (%) P6 at 4 ppm [6]: 97%
19 | CC/C(=N\OCc1ccccc1/C(=N\OC)C(=O)NC)c1cccc(C(F)(F)F)c1 [reference compound] |  | 60 |  | PHAKPA (F129L) Disease level (%) P6 at 4 ppm [6]: 70%
20 | CNC(=O)/C(=N/OC)c1ccccc1CO/N=C(/c1ccccc1)C(F)F [reference compound] |  | 43 |  | PHAKPA (F129L) Disease level (%) P6 at 4 ppm [6]: 90%
21 | CNC(=O)/C(=N/OC)c1ccccc1CO/N=C(\C)c1ccccc1Br [reference compound] | 28 |  | 23 | 
22 | CNC(=O)/C(=N/OC)c1ccccc1CO/N=C(\C)c1ccccc1OC [reference compound] | 80 |  | 87 | 
23 | CNC(=O)/C(=N/OC)c1ccccc1CO/N=C(\C)c1ccc(-c2ccccc2)cc1 [reference compound] | 28 |  | 37 | 
24 | CNC(=O)/C(=N/OC)c1ccccc1CO/N=C(\C)c1ccc(C#N)cc1 [reference compound] | 63 |  | 37 | 

Row | Compound | PHAKPA (F129L) Disease level (%) P6 at 16 ppm [6] [%] | PHAKPA (F129L) Disease level (%) P2 at 4 ppm [7] [%] | PHAKPA (F129L) Disease level (%) P2 at 16 ppm [7] [%] | further results
25 | CNC(=O)/C(=N/OC)c1ccccc1CO/N=C(\C)c1ccc(Cl)c(C(F)(F)F)c1 [reference compound] | 4 |  | 11 | 
26 | CNC(=O)/C(=N/OC)c1ccccc1CO/N=C(\C)c1cccc(C(F)F)c1 [reference compound] | 35 |  | 16 | 
27 | CNC(=O)/C(=N/OC)c1ccccc1CO/N=C(/c1ccc(F)cc1)C(F)F [reference compound] | 15 |  | 15 | 
28 | CNC(=O)/C(=N/OC)c1ccccc1CO/N=C(\C)c1cccc(N2CC(F)(F)C2)c1 [reference compound] | 53 |  | 70 | 
29 | CNC(=O)/C(=N/OC)c1ccccc1CO/N=C(\C)c1cccc(-c2noc(C(F)(F)F)n2)c1 [reference compound] | 32 |  | 23 | 
30 | CO/N=C(/C(=O)OC)c1ccccc1CO/N=C(\C)c1cc(Cl)cc(Cl)c1 [reference compound] | 17 |  | 27 | 
31 | CO/N=C(/C(=O)OC)c1ccccc1CO/N=C(\C)c1cccc(Br)c1 [reference compound] | 87 |  | 80 | 
32 | CO/N=C(/C(=O)OC)c1ccccc1CO/N=C(\C)c1ccccc1C(F)(F)F [reference compound] | 90 |  | 87 | 
33 | CO/N=C(/C(=O)OC)c1ccccc1CO/N=C(\C)c1ccc(C)cc1 [reference compound] | 10 |  | 25 | 
34 | CO/N=C(/C(=O)OC)c1ccccc1CO/N=C(\C)c1ccc(OC)cc1 [reference compound] | 33 |  | 67 | 
35 | CO/N=C(/C(=O)OC)c1ccccc1CO/N=C(\C)c1ccccc1F [reference compound] | 77 |  | 83 | 
36 | CO/N=C(/C(=O)OC)c1ccccc1CO/N=C(\C)c1ccc(C(F)(F)F)cc1 [reference compound] | 13 |  | 43 | 
37 | CO/N=C(/C(=O)OC)c1ccccc1CO/N=C(\C)c1ccccc1 [reference compound] | 43 |  | 87 | 
38 | CO/N=C(\C)c1ccc(/C(C)=N/OCc2ccccc2/C(=N\OC)C(=O)OC)cc1 [reference compound] | 60 |  | 57 | 
39 | CO/N=C(/C(=O)OC)c1ccccc1CO/N=C(\C)c1ccc(C#N)cc1 [reference compound] | 53 |  | 87 | 
40 | CO/N=C(/C(=O)OC)c1ccccc1CO/N=C(/c1ccc(Cl)cc1)C(F)F [reference compound] | 90 |  | 100 | 
41 | CO/N=C(/C(=O)OC)c1ccccc1CO/N=C(\C)c1ccc(Cl)cc1 [reference compound] | 43 |  | 63 | 
42 | CO/N=C(/C(=O)OC)c1ccccc1CO/N=C(\C)c1cccc(C)c1 [reference compound] | 83 |  | 93 | 
43 | CO/N=C(/C(=O)OC)c1ccccc1CO/N=C(\C)c1cccc(F)c1 [reference compound] | 80 |  | 90 | 
44 | CO/N=C(/C(=O)OC)c1ccccc1CO/N=C(\C)c1cccc(Cl)c1 [reference compound] | 70 |  | 73 | 
45 | CO/N=C(/C(=O)OC)c1ccccc1CO/N=C(\C)c1cccc(C#N)c1 [reference compound] | 43 |  | 80 | 
46 | CO/C=C(/C(=O)OC)c1ccccc1CO/N=C(\C)c1ccccc1C(F)(F)F [reference compound] | 9 |  | 11 | 
47 | CO/N=C(/C(=O)OC)c1ccccc1CO/N=C(\C)c1cc(F)ccc1F [reference compound] | 22 |  | 1 | 
